Like-named read-outs stand apart in the source and are kept apart here.
Tests used:
ATF4, NOXA = experiment: Immunoblot of whole cell lysates for ATF4 and NOXA; format: cell-based; conditions: 25 nM IACS-010759, 24 h
MM = experiment: IACS-010759 in combination with anti-myeloma agents, cell death in MM cells; format: cell-based
MCL-1 = MCL-1 expression in MM cells; format: cell-based; conditions: KMS12PE
[1] = tested on: venetoclax-resistant MM lines; experiment: Venetoclax sensitization of resistant MM lines by ETC inhibitor cotreatment, viability by AnnexinV/DAPI staining; format: cell-based
Protocol: Cell viability assessed by AnnexinV/DAPI staining.
Given the unique role of Complex II in directly connecting the TCA cycle to the ETC, the impact of selectively inhibiting either the SDH or SQR activities of Complex II on venetoclax sensitivity was tested. The venetoclax sensitization effects of TTFA (SQR inhibitor) or 3NPA (SDH inhibitor) were tested on eight venetoclax-resistant MM lines (FIG. 3A-3H). 3NPA is a structural analog of succinate, which binds irreversibly with SDH inhibiting FAD reduction and fumarate production while TTFA is a direct Qp site inhibitor. […] The efficacy of the TTFA-venetoclax cotreatment strategy was also tested in a colony-forming unit assay. MM lines (L363 and KMS11) were cultured in an agar matrix with single agents or the combination.
To further inquire whether Complex I inhibition could also sensitize MM cells to venetoclax, a Complex I inhibitor was tested ([…]).

[2] = tested on: non-MM cells contained within the aspirate
Protocol: Bone marrow aspirate samples from 50 MM patients were treated with three doses of venetoclax (0.01, 0.1 and 0.5 μM) or TTFA (100 μM), or the combination for 24 h and cell death was assessed by AnnexinV staining.
The efficacy of IACS-010759 in sensitizing was tested in […] patient samples to venetoclax.

[3] = tested on: CD38+ CD45− gated MM cells from myeloma patient bone marrow aspirates; experiment: Ex vivo venetoclax sensitivity of myeloma patient samples, Annexin V staining; format: cell-based, human; conditions: nine patient samples, IACS-010759
Protocol: CD38-PE and CD45-APC-Cy7 were used to gate myeloma cells. n=50 biological independent samples.
Bone marrow aspirate samples from 50 MM patients were treated with three doses of venetoclax (0.01, 0.1 and 0.5 μM) or TTFA (100 μM), or the combination for 24 h and cell death was assessed by AnnexinV staining. […] A venetoclax ICso <0.1 μM is characterized as a sensitive sample.
Bone marrow aspirates or peripheral blood samples from consenting myeloma patients were diluted to 25 mL with PBS and over laid on lymphocyte separation media. Following centrifugation, the collected buffy coat was washed with PBS and resuspended in culture medium. Cells subject to various treatments were stained with anti-CD38-phyocerythrin and anti-CD45-allophycocyanin-Cy7 to identify MM cells. CD138+ cells were purified using MACS CD138+ human microbeads. IC50S of venetoclax alone or in combination with TTFA/IACS-010759 in myeloma samples were calculated using nonlinear regression (curve-fit) analysis under agonist vs. normalized response with variable slope.

L363, KMS11 and KMS21BM = experiment: ATP levels after ETC complex III, IV, V inhibition; format: cell-based; conditions: after 24 h, at the doses used
Protocol: Experiments were performed to determine whether inhibition of Complex III, IV and V could also sensitize resistant MINI to venetoclax.

AML = conditions: targeting Complex II; cited from earlier work
[4] = tested on: bone marrow plasma cells and memory B cells; conditions: murine immune system; cited from earlier work
MM patients = conditions: cited from earlier work
MM cell lines = experiment: Cell death of MM cell lines with single-agent venetoclax, AnnexinV/DAPI flow cytometric staining; format: cell-based; conditions: 0.5 μM venetoclax, 24 h, panel of MM lines
Protocol: Percent live normalized to vehicle control, with cell lines grouped by sensitivity. n=3 independent experiments.
Differential venetoclax sensitivity was assessed in a panel of MM lines. […] The pattern of increased sensitivity of these cell lines was selective for venetoclax and not detected with other standard myeloma therapeutics i.e. bortezomib and melphalan or sensitivity to the MCL-1 inhibitor […] as reported for the KMS12BM, KMS12PE, KMS11, MM.1 S, JJN3, RPMI-8226 and L363 lines.

[5] = L363, KMS11, KMS21BM, doses reducing ATP by about 50% after 24 h

Cc1nc(-c2nc(-c3ccc(OC(F)(F)F)cc3)no2)nn1Cc1cccc(N2CCC(S(C)(=O)=O)CC2)c1 [IACS-010759, 5-(5-methyl-1-(3-(4-(methylsulfonyl)piperidin-1-yl)benzyl)-1H-1,2,4-triazol-3-yl)-3-(4-(trifluoromethoxy)phenyl)-1,2,4-oxadiazole]
protein expression of ATF4, NOXA (ATF4, NOXA): induction of ATF4 and NOXA | effect on carfilzomib (CFZ) response (MM; 24 hr dose response): antagonizes MM to proteasome inhibitor carfilzomib | effect on bortezomib induced cell death (MM; L363, 24 hr treatment): antagonizes MM to proteasome inhibitor bortezomib induced cell death | effect on melphalan induced cell death (MM; L363, 24 hr treatment): sensitizes myeloma to melphalan induced cell death | effect on efficacy of dexamethasone + venetoclax (MM; MM): increases efficacy of dexamethasone (Dex) +Ven | effect on sensitivity to dexamethasone (MM; MM): increases sensitivity of MM to Dex | sensitization to venetoclax (ABT-199) (MM; t(11;14) MM, KMS12PE, 24 hr Ven treatment): sensitizes t(11;14) MM to venetoclax | MCL-1 expression (MCL-1): reduces MCL-1 | IC50 of venetoclax on cotreatment ([1]; 25 nM IACS-010759, tested cell lines): significantly reduced the IC50 of venetoclax | sensitization to 0.5 μM venetoclax ([1]; KMS11, L363, KMS21BM, increasing doses of IACS-010759, 24 h): sensitized cells to 0.5 μM venetoclax | sensitization to venetoclax ([1]; KMS21BM, TTFA at 100 μM): enough to sensitize KMS21BM to venetoclax | viability of non-MM cells [2]: minimal impact on the viability of non-MM cells | samples with >50% reduction in the IC50 of venetoclax [3]: five of the samples | samples with increased venetoclax sensitivity [3]: Eight out of nine samples showed increased sensitivity

antimycin
reduction of ATP levels (L363, KMS11 and KMS21BM): about 50% | sensitization to venetoclax [1, 5]: sensitized L363, KMS11 and KMS21BM to venetoclax

[N-]=[N+]=[N-] [sodium azide]
reduction of ATP levels (L363, KMS11 and KMS21BM): about 50%

Nc1ncn([C@@H]2O[C@H](CO)[C@@H](O)[C@H]2O)c(=O)n1 [azacitidine]
venetoclax sensitivity (AML): induced venetoclax sensitivity

CC[C@H]1/C=C/C=C/C[C@@H](C)[C@H](O)[C@@](C)(O)C(=O)[C@@H](C)[C@H](O)[C@@H](C)C(=O)[C@@H](C)[C@H](O)[C@@H](C)/C=C/C(=O)O[C@@H]2[C@H](C)[C@H](CC1)O[C@]1(CC[C@H](C)[C@H](C[C@@H](C)O)O1)[C@H]2C [oligomycin]
reduction of ATP levels (L363, KMS11 and KMS21BM): about 50% | sensitization to venetoclax [1, 5]: sensitized L363, KMS11 and KMS21BM to venetoclax

C/C=C(\C)[C@H](O)[C@H](C)/C=C(C)/C=C/C/C(C)=C/Cc1nc(OC)c(OC)c(O)c1C [piericidin]
sensitization to venetoclax ([1]; resistant MM cell lines, Complex I inhibitor): also sensitized resistant MM cell lines to venetoclax

CN(C)CC[C@H](CSc1ccccc1)Nc1ccc(S(=O)(=O)NC(=O)c2ccc(N3CCN(Cc4ccccc4-c4ccc(Cl)cc4)CC3)cc2)cc1[N+](=O)[O-] [ABT-737]
effect on plasma cells and B cells [4]: inhibits the establishment of newly arising bone marrow plasma cells and memory B cells with no effect on pre-existing plasma cells, or germinal center B cells

O=C(O)CC[N+](=O)[O-] [3NPA]
sensitivity to venetoclax on cotreatment ([1]; eight venetoclax-resistant MM lines, 24 h): less effective compared to TTFA

CC1(C)CCC(CN2CCN(c3ccc(C(=O)NS(=O)(=O)c4ccc(NCC5CCOCC5)c([N+](=O)[O-])c4)c(Oc4cnc5[nH]ccc5c4)c3)CC2)=C(c2ccc(Cl)cc2)C1 [venetoclax, 2-((1H-pyrrolo[2,3-b]pyridin-5-yl)oxy)-4-(4-((4′-chloro-5,5-dimethyl-3,4,5,6-tetrahydro-[1,1′-biphenyl]-2-yl)methyl)piperazin-1-yl)-N-((3-nitro-4-(((tetrahydro-2H-pyran-4-yl)methyl)amino)phenyl)sulfonyl)benzamide]
fraction of MM patients responding to single agent (MM patients; all MM patients): approximately 7% | fraction of patients venetoclax sensitive (MM patients; non-t(11;14) patients): < 6% | fraction of patients venetoclax sensitive (MM patients; t(11;14) patients): ~40% | cytotoxicity (cell death) (MM cell lines): significant cytotoxicity primarily in t(11;14) lines

From patent US20210386752A1, “Uses of Electron Transport Chain Complex I or Complex II Inhibitors in Treating Cancer, Combination Therapies, and Diagnostic Methods Related Thereto” (Emory University, priority 2020, published 2021)
